In ChEMBL document CHEMBL1795300, “Fluorescent phosphoinositide 3-kinase inhibitors suitable for monitoring of intracellular distribution” (Bioorg Med Chem, 2011):

What was measured:
[1] = Inhibition of PI3K assessed as amount of ADP produced preincubated with compound and L-alpha-phosphatidylinositol for 5 mins by Glo Max luminescent kinase assay
[2] = test system: T47D; assay: Antiproliferative activity against human T47D cells after 48 hrs by MTT assay; type: functional, cell-based
[3] = test system: MCF7; assay: Antiproliferative activity against human MCF7 cells after 48 hrs by MTT assay; type: functional, cell-based; settings: MCF7, 48 h
[4] = test system: SK-BR-3; assay: Antiproliferative activity against human SKBR3 cells after 48 hrs by MTT assay; type: functional, cell-based; settings: SK-BR-3, 48 h

Compound	IC50 [1]	IC50 [2]	IC50 [3]	IC50 [4]
COc1ccc(-n2c(-c3ccc(N(C)C)cc3)nc3c2c(=O)n(C)c(=O)n3C)cc1OC	25 µM	–	–	–
CN(C)c1ccc(-c2nc3c(c(=O)n(C)c(=O)n3C)n2-c2cc(F)cc(F)c2)cc1	25 µM	–	–	–
COc1ccc(-n2c(-c3ccc(NC(C)=O)c(OC)c3)nc3c2c(=O)n(C)c(=O)n3C)cc1F	8.5 µM	–	–	–
CC(=O)Nc1ccc(-c2nc3c(c(=O)n(C)c(=O)n3C)n2-c2ccccc2)cc1	12.5 µM	–	–	–
COc1ccc(-n2c(-c3cncc(NS(C)(=O)=O)c3)nc3c2c(=O)n(C)c(=O)n3C)cc1	4.5 µM	–	–	–
COc1cc(N(C)C)ccc1-c1nc2c(c(=O)n(C)c(=O)n2C)n1-c1cccc(F)c1	22 µM	–	–	–
COc1ccc(-n2c(-c3ccc(N(C)C)cc3)nc3c2c(=O)n(C)c(=O)n3C)cc1	22 µM	–	–	–
COc1ccc(-n2c(-c3cnccc3NS(C)(=O)=O)nc3c2c(=O)n(C)c(=O)n3C)cc1	> 30 µM	–	–	–
COc1cc(NC(C)=O)ccc1-c1nc2c(c(=O)n(C)c(=O)n2C)n1-c1ccc(Cl)c(Cl)c1	13 µM	–	–	–
CN(C)c1ccc(-c2nc3c(c(=O)n(C)c(=O)n3C)n2-c2ccc(Cl)c(Cl)c2)cc1	> 30 µM	–	–	–
COc1ccc(-n2c(-c3ccc(N(C)C)cc3)nc3c2c(=O)n(C)c(=O)n3C)cc1F	22 µM	–	–	–
COc1cc(N(C)C)ccc1-c1nc2c(c(=O)n(C)c(=O)n2C)n1-c1cc(F)cc(F)c1	15 µM	–	–	–
COc1ccc(-n2c(-c3cccc(NS(C)(=O)=O)c3)nc3c2c(=O)n(C)c(=O)n3C)cc1	3.2 µM	–	–	–
CN(C)c1ccc(-c2nc3c(c(=O)n(C)c(=O)n3C)n2-c2cccc(F)c2)cc1	20 µM	–	–	–

Stronger by IC50 [1], values ahead:

IC50 [1]	IC50 [2]	IC50 [3]	IC50 [4]	Compound
0.51 µM	–	–	–	COc1ccc(-n2c(-c3ccc(NC(C)=O)cc3)nc3c2c(=O)n(C)c(=O)n3C)cc1OC
0.37 µM	–	–	–	CC(=O)Nc1ccc(-c2nc3c(c(=O)n(C)c(=O)n3C)n2-c2ccc(C)cc2)cc1
0.28 µM	–	–	–	CC(=O)Nc1ccc(-c2nc3c(c(=O)n(C)c(=O)n3C)n2-c2ccc(Cl)c(Cl)c2)cc1
0.22 µM	–	–	–	COc1ccc(-n2c(-c3cncc(NS(=O)(=O)c4ccc(C)cc4)c3)nc3c2c(=O)n(C)c(=O)n3C)cc1
0.21 µM	1.7 µM	4.2 µM	> 25 µM	COC(=O)Nc1ccc(-c2nc3c(c(=O)n(C)c(=O)n3C)n2-c2ccc(OC)cc2)cc1
0.15 µM	3.7 µM	9.4 µM	> 25 µM	COc1ccc(-n2c(-c3ccc(NC(C)=O)cc3)nc3c2c(=O)n(C)c(=O)n3C)cc1
0.091 µM	–	–	–	COc1ccc(-n2c(-c3cncc(NS(=O)(=O)c4ccccc4)c3)nc3c2c(=O)n(C)c(=O)n3C)cc1
0.068 µM	0.9 µM	1.7 µM	15.4 µM	CC(=O)Nc1ccc(-c2nc3c(c(=O)n(C)c(=O)n3C)n2-c2cccc(F)c2)cc1
0.031 µM	1.6 µM	2.8 µM	11.5 µM	COc1ccc(-n2c(-c3ccc(NC(C)=O)cc3)nc3c2c(=O)n(C)c(=O)n3C)cc1F
0.017 µM	4.7 µM	11.6 µM	> 25 µM	CNC(=O)Nc1ccc(-c2nc3c(c(=O)n(C)c(=O)n3C)n2-c2ccc(OC)c(F)c2)cc1
